How the values were obtained:
[1] = biological target: T1, 5‐HT2C receptor (Rattus norvegicus, UniProt P08909); assay: 5‐HT2C receptor binding assay ([3H]‐LSD competition); details: mean ± SEM, three independent experiments
T1 construct: 5‐HT2C receptor membrane protein was extracted from rat hippocampus and a stably transfected HEK293 cell line; from tissue; host or cells: rat hippocampus
T1 sequence (P08909 33-460): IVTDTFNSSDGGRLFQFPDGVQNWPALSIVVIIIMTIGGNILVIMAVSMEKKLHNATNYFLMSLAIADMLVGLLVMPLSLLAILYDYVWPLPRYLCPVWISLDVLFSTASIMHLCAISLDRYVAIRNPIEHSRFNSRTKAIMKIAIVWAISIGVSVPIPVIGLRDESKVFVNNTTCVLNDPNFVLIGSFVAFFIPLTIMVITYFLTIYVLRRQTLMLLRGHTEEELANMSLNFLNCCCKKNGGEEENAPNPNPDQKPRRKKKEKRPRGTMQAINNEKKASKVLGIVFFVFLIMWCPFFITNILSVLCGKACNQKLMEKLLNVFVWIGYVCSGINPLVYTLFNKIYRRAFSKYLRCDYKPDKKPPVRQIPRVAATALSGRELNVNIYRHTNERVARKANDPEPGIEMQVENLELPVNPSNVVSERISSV
Protocol: Hippocampal membrane preparations were obtained using previously described methods. ^24 , ^25 , ^26 Briefly, rats were decapitated and their brains were rapidly removed. Next, the hippocampus was dissected and subsequently homogenized in 40 volumes of ice‐cold buffer (50 mM Tris‐HCl Buffer, pH 7.4) and then centrifuged at 40,000 × g at 4°C for 10 min. The particles were re‐suspended and centrifuged again. In order to remove endogenous monoamines, the final suspension was incubated at 37°C for 20 min and then centrifuged as usual. The final pellets were frozen at −80°C at once for up to 1 week.
Human MT1/MT2 receptor membrane proteins were obtained from Perkin‐Elmer (ES‐620 [MT1] and ES‐621 [MT2]). The stably transfected 5‐HT2C receptor HEK293 cell line was prepared using a nucleus‐cytoplasm‐membrane preparation kit (Applagin Technologies Inc.). Briefly, cells were harvested at 4°C, 110 00 × g and centrifugation for 5 min. Homogenize pellets in the assay buffer (50 mM Tris‐HCl buffer containing 120 mM NaCl and 5 mM KCl, pH 7.4) and then centrifuged twice at 4°C, 36,000 × g for 15 min. […]
Receptor membrane protein, 5‐HT2C (50 μl), was added to all the tubes. Non‐specific binding was determined by the presence of unlabeled 10 μM 5‐HT and pre‐reacted for 30 min. […] Finally, 1 ml of scintillation fluid was added and the radioactive intensity measured by liquid scintillation counting.

[2] = biological target: T2, MT1 receptor (Homo sapiens, UniProt P48039); assay: MT1 receptor binding assay ([3H]‐melatonin competition); details: mean ± SEM, three independent experiments
T2 construct: purchased Perkin‐Elmer ES‐620
Protocol: The stably transfected 5‐HT2C receptor HEK293 cell line was prepared using a nucleus‐cytoplasm‐membrane preparation kit (Applagin Technologies Inc.). Briefly, cells were harvested at 4°C, 110 00 × g and centrifugation for 5 min. Homogenize pellets in the assay buffer (50 mM Tris‐HCl buffer containing 120 mM NaCl and 5 mM KCl, pH 7.4) and then centrifuged twice at 4°C, 36,000 × g for 15 min. Finally, pellets were re‐suspended in assay buffer and stored it at −80°C until it is used for in vitro experiments.
Receptor membrane protein, MT1 or MT2 (10 μl), was added to all pipes. Non‐specific binding was determined by the presence of unlabeled 10 µM melatonin and pre‐reacted for 30 min. In test tubes, 30 μl of test drugs (MT1: concentration, 10^−4–10^−10 M; MT2: concentration, 10^−4–10^−11 M) was added. Additionally, 40 μl [^3H]‐melatonin was added to all tubes. The volume in all reaction tubes was made up to 300 μl with Tris‐HCl buffer (50 mM, pH 7.4). Reactions were performed at 25°C for 1 h. The mixture was then spotted onto a type 49 glass fiber filter paper, suction filtered under vacuum, rinsed three times with 2 ml ice‐cold Tris‐HCl buffer (50 mM, pH 7.4), and dried by suction. […] Finally, 1 ml of scintillation fluid was added and then the radioactive intensity measured by liquid scintillation counting.

[3] = test system: CUS rats; assay: Novelty‐suppressed feeding test in the CUS model; assay type: in vivo; details: chronic, 5, 10, 20 and 40 mg/kg, vs. vehicle‐stressed rats
Protocol: In order to further examine the antidepressant effects of GW117, chronic unpredictable stress (CUS) model was utilized; the methods were as described before. ^29 , ^31 After 1 week of training, rats underwent sucrose training of 48 h. After training, a sucrose baseline test was performed. […] Gastric gavage was given 1 h before the stress (08:00–09:00). Except for the non‐stressed group, all rats were stimulated by a series of stressors. stress methods included the following: fast on food and water (24 h), moisture cage (150 g sawdust bedding in 200 ml water), overnight illumination, low‐intensity strobe illumination (100 flashes/min), forced swimming (5 min at 10℃), white noise (110 dB), tail pinch (1 cm from tail root, 6 min), 45℃ cage tilt, and restraint (1–2 h). Stressors need to be used continuously and randomly. Non‐stressed rats received free food and water, but were required to fast for 14 h before sucrose preference test. After 4 weeks of stress, the sucrose preference test (SPT) (on day 25), open field test (OFT) (on day 28), and novelty‐suppressed feeding (NSF) test (on day 29) were carried out. […]

T2 sequence (P48039 whole entry): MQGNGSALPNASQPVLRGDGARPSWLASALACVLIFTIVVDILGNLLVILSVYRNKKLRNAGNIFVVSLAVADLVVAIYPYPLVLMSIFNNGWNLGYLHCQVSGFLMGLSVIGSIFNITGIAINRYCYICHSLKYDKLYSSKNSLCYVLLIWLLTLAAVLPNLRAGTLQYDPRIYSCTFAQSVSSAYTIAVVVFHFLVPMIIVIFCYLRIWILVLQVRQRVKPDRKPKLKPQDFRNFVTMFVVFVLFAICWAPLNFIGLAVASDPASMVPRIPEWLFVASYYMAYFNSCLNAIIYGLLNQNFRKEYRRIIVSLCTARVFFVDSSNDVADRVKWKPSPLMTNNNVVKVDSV

- Ki [1]: 0.32 ± 0.08 nM
- Ki [2]: 0.12 ± 0.06 nM
Structure (SMILES): [2H]C([2H])([2H])Oc1cc2c(CCNC(C)=O)cccc2cc1Cl [GW117]
- latency to begin eating [3]: significantly reduced the latency to begin eating
